Data taken from PubChem BioAssay (NCI).
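Values below derive from 48-hour exposures of cells grown in 96-well plates, with endpoints linearly interpolated between the two concentrations bracketing the appropriate inhibition level. TGI marks complete inhibition of growth.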 Where a SMILES comes first, the peptide text is derived from it. [ ]: non-standard residue; d: D form. The star is where a group is joined. ξ: configuration not given here. NMeY = CN[C@@H](Cc1ccc(O)cc1)C(=O)O; Cbz = O=C(OCc1ccccc1)*; ξA = CC(N)C(=O)O

Assays:
Experiment in all cases: NCI-60 cell line screen, 48 h
NCI-H226 lung = tested on: NCI-H226 lung
SR leukemia = tested on: SR leukemia
NCI-H23 lung = tested on: NCI-H23 lung
RPMI-8226 leukemia = tested on: RPMI-8226 leukemia
IGROV1 ovarian = tested on: IGROV1 ovarian
HL-60(TB) leukemia = tested on: HL-60(TB) leukemia
COLO 205 colon = tested on: COLO 205 colon
SK-MEL-5 melanoma = tested on: SK-MEL-5 melanoma
A498 renal = tested on: A498 renal
CCRF-CEM leukemia = tested on: CCRF-CEM leukemia
T-47D breast = tested on: T-47D breast

SMILES | TGI (NCI-H226 lung) [µM] | TGI (SR leukemia) [µM] | TGI (NCI-H23 lung) [µM] | TGI (RPMI-8226 leukemia) [µM] | TGI (IGROV1 ovarian) [µM] | TGI (HL-60(TB) leukemia) [µM] | TGI (COLO 205 colon) [µM] | TGI (SK-MEL-5 melanoma) [µM] | TGI (A498 renal) [µM] | TGI (CCRF-CEM leukemia) [µM] | TGI (T-47D breast) [µM]
N#CCCC(C#N)(C#N)CCC#N | > 100 | > 100 | > 100 | > 100 | > 100 | > 100 | > 100 | > 100 | – | – | –
O=c1[nH][nH]c(=O)n1Cc1ccccc1 | > 100 | > 100 | > 100 | > 100 | – | > 100 | > 100 | > 100 | > 100 | > 100 | > 100
CCOC(=O)/C(C1=NCCN1C)=C(\O)c1ccccc1 | > 100 | > 100 | > 100 | > 100 | > 100 | > 100 | > 100 | > 100 | – | > 100 | –
O=C1CC(n2ccnc2)c2c(Cl)sc(Cl)c21 (stereo not drawn) | 77.1 | > 19.8 | 30.9 | > 100 | 26.6 | > 100 | 33.8 | 41.2 | – | > 22.6 | 53.2
CCOC(=O)/C=C(/C(=O)OCC)n1ccc(=O)n(Cc2cn(CCCCOC(C)=O)nn2)c1=O | > 100 | > 100 | > 100 | > 100 | > 100 | – | > 100 | > 100 | – | 35.3 | > 100
COC(C)=NCCC1=CCCCC1 | – | > 100 | > 100 | > 100 | > 100 | – | > 100 | > 100 | > 100 | – | > 100
c1ccc2c(c1)CCN1CCc3ccccc3C1C2 (stereo not drawn) | 93.1 | > 100 | > 100 | > 100 | > 100 | > 100 | > 100 | 37 | > 100 | > 100 | > 100
O=C1CSC(c2ccccc2)N1c1ccc(-c2ccc(-n3c(-c4ccccc4)nc4ccccc4c3=O)cc2)cc1 (stereo not drawn) | – | > 100 | > 100 | > 100 | > 100 | > 100 | > 100 | > 100 | > 100 | > 100 | > 100
COc1ccc(C[C@H]2COC(=O)[C@@H]2Cc2ccc(Br)cc2)cc1OC | > 85.4 | > 94 | > 100 | > 100 | > 92.4 | > 61.6 | 39.5 | 17.2 | – | > 100 | > 100
O=C(O)C12C3CCC(C3)C1(C(=O)O)C1CCC2C1 (stereo not drawn) | > 100 | > 100 | > 100 | 48.4 | > 100 | > 100 | > 100 | > 100 | > 100 | 95 | –
O=C(c1ccccc1)n1cc(/C=C/[N+](=O)[O-])c2ccccc21 | – | 44.9 | 37.6 | 39.9 | 54.7 | 13.3 | 59.2 | > 100 | > 100 | 35.1 | –
COC(=O)c1cc(/C=C/C(=O)Cc2ccccc2)cn1S(=O)(=O)c1ccccc1 | – | > 100 | > 100 | – | > 100 | > 100 | > 100 | > 100 | – | > 100 | > 100
Cc1cn(C2CC(O)C(Cn3nncc3Cn3cnc4c(N)ncnc43)O2)c(=O)[nH]c1=O (stereo not drawn) | > 100 | > 100 | > 100 | > 100 | > 100 | > 100 | > 100 | > 100 | > 100 | > 100 | > 100
COc1cc(-c2nc(N)c(C#N)c3c2CCS(=O)(=O)c2ccc(C)cc2-3)cc(OC)c1OC | 51.1 | > 100 | > 100 | > 100 | > 100 | > 100 | > 100 | > 100 | 69.8 | > 100 | > 100
Cc1cc2c(cc1Cl)SC(NNCCO)=NS2(=O)=O | > 100 | > 100 | > 100 | > 100 | > 100 | > 100 | > 100 | > 100 | – | > 100 | > 100
CC(C)CCNC(=O)c1ccc(CNC(=O)/C=C/c2ccc3ccccc3c2)cc1 | > 100 | > 100 | > 100 | > 100 | – | > 100 | > 100 | > 100 | > 100 | – | > 100
O=c1ccn(C/C=C/c2ccccc2)c(=S)n1C/C=C/c1ccccc1 | > 100 | > 100 | > 100 | – | > 100 | 39.4 | > 100 | > 100 | > 100 | 62.9 | > 100
CCOC(=O)/C(=C\c1c[nH]c2ccccc12)P(=O)(OCC)OCC | 77.5 | 61.1 | 71.5 | 76.8 | > 100 | 62 | 44.1 | > 100 | 76.1 | 66.9 | > 100
CN(C)c1n2c3ccc([N+](=O)[O-])cc3n3c(N(C)C)[n+]4ccccc4c3c2c2cccc[n+]12 | > 100 | > 100 | > 100 | > 100 | > 100 | > 100 | > 100 | > 100 | > 100 | > 100 | > 100
COc1ccc(C[C@@H](C(=O)N[C@@H](C)C(N)=O)N(C)C(=O)[C@@H]2CCCN2C(=O)[C@H](CC(C)C)NC(=O)C(C)NC(=O)OCc2ccccc2)cc1 (stereo partly drawn) (Cbz-[ξA]LP[NMeY](Me)A-NH2) | > 100 | > 100 | > 100 | > 100 | > 100 | > 100 | > 100 | > 100 | > 100 | > 100 | > 100
CC(=O)Oc1ccc2c(c1)[nH]c1c3ccc(OC(C)=O)cc3oc(=O)c21 | 76.5 | 71.7 | > 100 | – | > 100 | – | > 100 | 68.9 | – | 98.8 | 48.9
CC(CC(=O)N1C2CC3CCC2(CS1(=O)=O)C3(C)C)[Si](C)(C)C (stereo not drawn) | > 100 | > 100 | > 100 | > 100 | > 100 | > 100 | > 100 | > 100 | – | > 100 | > 100

SMILES | TGI (NCI-H226 lung) [µM] | TGI (SR leukemia) [µM] | TGI (NCI-H23 lung) [µM] | TGI (RPMI-8226 leukemia) [µM] | TGI (IGROV1 ovarian) [µM] | TGI (HL-60(TB) leukemia) [µM] | TGI (COLO 205 colon) [µM] | TGI (SK-MEL-5 melanoma) [µM] | TGI (A498 renal) [µM] | TGI (CCRF-CEM leukemia) [µM] | TGI (T-47D breast) [µM]
COc1ccc(S(=O)(=O)N/N=C(\C)CN2C(=O)c3ccccc3C2=O)cc1OC | > 100 | > 100 | > 100 | > 100 | > 100 | > 100 | > 100 | > 100 | > 100 | > 100 | –
Cc1ccc(NC(=O)c2cccc(OP(=O)(Nc3ccc(C)cc3)Nc3ccc(C)cc3)c2)cc1 | 63.6 | 17.1 | > 100 | – | > 100 | > 100 | 5.27 | > 100 | 62.3 | > 100 | > 100
Cc1cc(NS(=O)(=O)c2ccc(NO)cc2)no1 | > 100 | 46.2 | – | – | > 100 | > 100 | > 100 | > 100 | > 100 | 44.7 | –
COc1cc(C2C(C(=O)NCc3ccccc3)=C(C)NC(C)=C2C(=O)NCc2ccccc2)ccc1O | > 100 | 54.4 | 90.5 | 73.6 | > 100 | 66.5 | – | > 100 | > 100 | 98.3 | –
Cc1c2c(n3c(nc4ccccc43)c1C#N)N(c1ccc(F)cc1)CC2 | > 100 | > 100 | > 100 | – | > 100 | > 100 | > 100 | > 100 | > 100 | > 100 | –
Cn1c2ncccc2n2c(=O)cc(O)cc12 | > 100 | > 100 | > 100 | > 100 | 31.5 | – | > 100 | > 100 | > 100 | > 100 | 95.7
Nc1ccc(-c2nc3ccccc3s2)cc1CO | – | > 100 | > 100 | > 100 | > 100 | > 100 | > 100 | > 100 | > 100 | > 100 | > 100
CC(C)(C)OC(=O)N(O)CCCn1cnc2c(NC3CC3)ncnc21 | > 100 | > 100 | > 100 | > 100 | > 100 | – | > 100 | > 100 | > 100 | > 100 | > 100
O=C(Nc1ccccc1)OCCN=c1c2ccccc2ccc2ccccc12 | 57.1 | 54.5 | > 100 | 42.2 | > 100 | 44.9 | 51.4 | 31.2 | – | 50.4 | 43.5
O=C1C(Cl)C(c2ccc(O)cc2)N1n1cnc2ccccc2c1=O (stereo not drawn) | > 100 | 69.8 | > 96.3 | 57.7 | > 100 | 72.3 | 58.4 | > 100 | > 100 | > 100 | –
CN(C)CC1(Cc2ccccc2)CC/C(=C\c2ccccc2)C1=O (stereo not drawn) | > 100 | 60.4 | > 100 | 55.7 | > 100 | 48.7 | 89.6 | 64.3 | > 100 | 59.9 | –
NNC(=O)/C(NC(=O)c1ccccc1)=C(\N)c1cccc([N+](=O)[O-])c1 | > 100 | > 100 | > 100 | > 100 | > 100 | > 100 | > 100 | > 100 | > 100 | > 100 | –
COc1cccc(CCn2c(N)c(-c3cc(Cl)cc(Cl)c3)c3ccc([N+](=O)[O-])cc3c2=O)c1 | > 53.5 | > 64.8 | 5.99 | 3.02 | 22.7 | 5.37 | 4.05 | 9.07 | > 28.8 | – | > 24.8
COC(=O)C(=O)C(C(=O)OC)C(=O)C(=O)Nc1cc(Cl)c(C)cc1S(=O)(=O)O (stereo not drawn) | > 100 | > 100 | > 100 | – | > 100 | > 100 | > 100 | > 100 | > 100 | > 100 | –
c1ccc2cc(C3NCCc4[nH]cnc43)ccc2c1 (stereo not drawn) | > 100 | > 100 | > 100 | > 100 | > 100 | – | 62.5 | 45.3 | 88.5 | 91.6 | –
CN1CCCS/C1=C1/SC(=S)N(c2ccccc2)C1=O | > 100 | > 100 | > 100 | > 100 | > 100 | > 100 | > 100 | > 100 | > 100 | > 100 | –
N#Cc1ccc(C2OCC3CC=CCC3CO2)cc1 (stereo not drawn) | > 100 | > 100 | > 100 | > 100 | > 100 | 94.9 | > 100 | 49 | – | > 100 | –
N#CCCC1(CCC#N)S(=O)(=O)OCCOS1(=O)=O | > 100 | > 100 | > 100 | > 100 | – | 69.4 | > 100 | > 100 | – | > 100 | > 100
CCC1(c2ccc(OC)c(OC)c2)CCN(S(=O)(=O)c2ccc(C)cc2)C1 (stereo not drawn) | > 100 | > 10 | > 100 | – | > 100 | – | > 100 | > 100 | – | > 100 | > 100
CCC1=CC(OCc2ccccc2)C(CCN(Cc2ccccc2)C(=O)OCc2ccccc2)C1 (stereo not drawn) | 36.5 | 56.4 | 33.4 | 86.2 | 29.8 | – | 45.6 | 37.8 | 48.4 | – | 22.8
CC(=O)N1C(c2[nH]c3ccccc3c2Cc2ccccc2)CCN1c1ccccc1 (stereo not drawn) | > 10 | > 10 | > 10 | > 10 | > 10 | > 10 | > 10 | > 10 | – | > 10 | > 10
